Test results published in PMC8041284, “Tunable Methacrylamides for Covalent Ligand Directed Release Chemistry” (Journal of the American Chemical Society, 2021).
Where two headings read alike, the source gives them in different places. Where a SMILES comes first, the peptide text is derived from it. The star is where a group is joined. Cbz = O=C(OCc1ccccc1)*; CH2F = FC*

Biological target: BTK (Homo sapiens, UniProt Q06187)
Assay: biochemical
[1] = read-out: BTK inhibition (%), 0.75 uM BTK, […] probe 3l, 15 min preincubation

Chain of BTK (Q06187 402-655 limits assumed): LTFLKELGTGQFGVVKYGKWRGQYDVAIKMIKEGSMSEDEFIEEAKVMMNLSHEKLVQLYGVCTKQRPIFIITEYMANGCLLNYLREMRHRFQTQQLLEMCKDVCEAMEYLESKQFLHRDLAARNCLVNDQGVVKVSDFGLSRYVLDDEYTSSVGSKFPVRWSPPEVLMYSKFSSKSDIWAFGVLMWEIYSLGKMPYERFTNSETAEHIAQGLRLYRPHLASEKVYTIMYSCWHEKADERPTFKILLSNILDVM

| Compound | inhibition at 10 µM [1] [%] | inhibition at 10 µM (read-out: BTK inhibition (%)) [%] |
| --- | --- | --- |
| COc1cccc(Nc2c(C(N)=O)cnc3c(C)cc(S(=O)(=O)c4cccc(C(=O)N(C)C)c4)cc23)c1 [PCM-0095466] | 0 |  |
| O=C(O)CCCc1c[nH]c2ccccc12 [PCM-0094810] | -12.5 |  |
| COc1cc(CCC(C)=O)ccc1O [PCM-0094824] | -0.8 |  |
| Cc1ccc(S(=O)(=O)OCC(=O)Nc2ccc(C(=O)O)c(O)c2)cc1 [PCM-0094985] | 29.6 |  |
| N=C1CCCN1Cc1[nH]c(=O)[nH]c(=O)c1Cl [PCM-0214897] | -10.1 |  |
| CCCNC(=O)c1cn2ncnc(Nc3cc(C(=O)NC4CC4)ccc3C)c2c1C [PCM-0215631] | -13.8 |  |
| C[C@@H]([C@H](C)O)[C@H](N)C(=O)O [PCM-0216300] | -12.4 |  |
| CNc1ncc2cc(-c3cc(NC(=O)NCCC(C)(C)C)c(F)cc3C)c(C)nc2n1 [PCM-0215477] | 40.9 |  |
| CC(C)n1nc(-c2ccc(NC(=O)Nc3cc(C(F)(F)F)ccc3F)cc2)c2c(N)ncnc21 [PCM-0215828] | 106 |  |
| O=C(O)c1ccc(Br)c(O)c1 [PCM-0216168] | -23.9 |  |
| CO[C@H]1C[C@H](O[C@H]2[C@H](C)O[C@@H](O[C@@H]3/C(C)=C/C[C@@H]4C[C@@H](C[C@]5(C=C[C@H](C)[C@@H](C6CCCCC6)O5)O4)OC(=O)[C@@H]4C=C(C)[C@@H](O)[C@H]5OC/C(=C\C=C\[C@@H]3C)[C@]54O)C[C@@H]2OC)O[C@@H](C)[C@@H]1O [PCM-0215971] | 44 |  |
| C#Cc1cccc(Nc2ncnc3cc4c(cc23)OCCOCCOCCO4)c1 [PCM-0095422] | -16.6 |  |
| Cn1cnc2c(F)c(Nc3ccc(Br)cc3Cl)c(C(=O)NOCCO)cc21 [PCM-0094893] | -6.9 |  |
| O=c1c2ccccc2nc(/C=C/c2cccnc2)n1Cc1ccccc1 [PCM-0102024] | 0 |  |
| COc1ccc(-c2coc3cc(O)cc(O)c3c2=O)cc1 [PCM-0086643] | 2.3 |  |
| N#Cc1cc(-c2n[nH]c(-c3ccncc3)n2)ccn1 [PCM-0214916] | -18.7 |  |
| C[C@H]1C[C@H]2[C@@H]3CCC4=CC(=O)C=C[C@]4(C)[C@@]3(F)[C@@H](O)C[C@]2(C)[C@@]1(O)C(=O)CO [PCM-0214629] | -6.2 |  |
| C=CC[S@+]([O-])C[C@H](N)C(=O)O [PCM-0216303] | -9.3 |  |
| C[C@]12CC[C@H](O)C[C@@H]1CC[C@@H]1[C@@H]2CC[C@]2(C)C(=O)CC[C@@H]12 [PCM-0214741] |  | -21.8 |
| CC1CCN(CC[C@H]2CCCN2S(=O)(=O)c2cccc(O)c2)CC1 [PCM-0065410] | 7.8 |  |
| CN1CCN(c2nc(C3=C(c4c[nH]c5ccccc45)C(=O)NC3=O)c3ccccc3n2)CC1 [PCM-0095375] | 57.9 |  |
| CC(C)[C@H](NC(=O)OCc1ccccc1)C(=O)N[C@@H](C)C(=O)N[C@@H](CC(=O)O)C(=O)CF [PCM-0215591] (Cbz-Val-Ala-Asp-CH2F) | -5.4 |  |
| CN/C(=C\[N+](=O)[O-])NCCSCc1ccc(CN(C)C)o1 [PCM-0065476] | -3.4 |  |
| CC(C)(Oc1ccc(C2CC2(Cl)Cl)cc1)C(=O)O (stereo not drawn) [PCM-0064433] | -14 |  |
| Cn1cc[nH]c1=S [PCM-0086540] | 14.8 |  |

| Compound | inhibition at 10 µM [1] [%] | inhibition at 10 µM (read-out: BTK inhibition (%)) [%] |
| --- | --- | --- |
| CN(C)C(=O)Nc1cccc(-c2ccc(N(C)C)cc2)c1 [PCM-0095740] | -3.1 |  |
| NC(=O)c1nc(F)c[nH]c1=O [PCM-0215543] | -6.2 |  |
| N=C1S/C(=C\c2ccc(-c3ccc4c(c3)C(=O)NC4=O)o2)C(=O)N1c1ccc(Br)cc1 [PCM-0215801] | 27 |  |
| COc1cc(/C=C/C(=O)CC(=O)/C=C/c2ccc(O)c(OC)c2)ccc1O [PCM-0091011] | 102 |  |
| CC(=O)N1CCN(CCOc2ccc(C3CCN(C4=Nn5c(nnc5C(F)(F)F)CC4)CC3)cc2)CC1 [PCM-0215224] | -17 |  |
| CC(C)=C1CC[C@@H](C)CC1=O [PCM-0216421] | 14.7 |  |
| CS(=O)(=O)Nc1ccc([N+](=O)[O-])cc1Oc1ccccc1 [PCM-0064916] | 3.4 |  |
| CO[C@H]1O[C@@H]2O[C@@]3(C)CC[C@H]4[C@H](C)CC[C@@H]([C@H]1C)[C@@]24OO3 [PCM-0214640] | 3.1 |  |
| CCCNC(C)C(=O)Nc1ccccc1C (stereo not drawn) [PCM-0065518] | -16.3 |  |
| N[C@@H](Cc1cc(I)c(Oc2cc(I)c(O)c(I)c2)c(I)c1)C(=O)O [PCM-0085937] | 19.5 |  |
| CCCCCCCCCCCCCCCCOP(=O)([O-])OCC[N+](C)(C)C [PCM-0090698] | -72.3 |  |
| COC(=O)C1=CO[C@@H](O)[C@@H]2C(CO)=CC[C@H]12 [PCM-0065168] | -1.6 |  |
| O=C(O)/C=C(/CC(=O)O)C(=O)O [PCM-0215145] | -0.8 |  |
| CCCCCCCCCCCCc1ccc(S(=O)(=O)Nc2nncs2)cc1 [PCM-0095111] | 53.8 |  |
| OC[C@H]1O[C@@H](O[C@@H]2[C@@H](CO)O[C@](O)(CO)[C@H]2O)[C@H](O)[C@@H](O)[C@H]1O [PCM-0214810] | 13.2 |  |
| Cc1cn(-c2cc(NC(=O)c3ccc(C)c(Nc4nccc(-c5cnccn5)n4)c3)cc(C(F)(F)F)c2)cn1 [PCM-0215584] | -4.1 |  |
| CCCn1c(NC(=O)c2cccc(C(N)=O)c2)nc2ccccc21 [PCM-0215951] | -12.4 |  |
| O=S1(=O)CCN(CN2CCS(=O)(=O)NC2)CN1 [PCM-0215138] | 0 |  |
| O=C(CCCN1CCC(O)(c2ccc(Cl)cc2)CC1)c1ccc(F)cc1 [PCM-0065124] | -12.5 |  |
| CC1=CC[C@@H](C(C)(C)O)CC1 [PCM-0216214] | -20.8 |  |
| Cc1nnc(NS(=O)(=O)c2ccc(N)cc2)s1 [PCM-0086420] | -10.9 |  |
| C[C@@H]1CN(c2c(F)c(N)c3c(=O)c(C(=O)O)cn(C4CC4)c3c2F)C[C@H](C)N1 [PCM-0086271] | 2.3 |  |
| COc1ccccc1Oc1c(NS(=O)(=O)c2ccc(C(C)(C)C)cc2)nc(-c2ncccn2)nc1OCCO [PCM-0086316] | -7.8 |  |
| CN[C@@H]1[C@@H](O)[C@@H](O[C@@H]2[C@@H](O)[C@H](O[C@H]3O[C@H](CN)[C@@H](O)[C@H](O)[C@H]3O)[C@@H](N)C[C@H]2NC(=O)[C@@H](O)CN)OC[C@]1(C)O [PCM-0215401] | 4.3 |  |
| CC(C)[C@H](CO)Nc1nc(Nc2cccc(Cl)c2)c2ncn(C(C)C)c2n1 [PCM-0215464] | 50.3 |  |

| Compound | inhibition at 10 µM [1] [%] | inhibition at 10 µM (read-out: BTK inhibition (%)) [%] |
| --- | --- | --- |
| CC(C)OC(=O)CCC/C=C\C[C@@H]1[C@@H](/C=C/C(F)(F)COc2ccccc2)[C@H](O)C[C@@H]1O [PCM-0216028] | -61.5 |  |
| O=c1ncn2nc(Sc3ccc(F)cc3F)ccc2c1-c1c(Cl)cccc1Cl [PCM-0214781] | 40 |  |
| CCOc1ccc(Cc2cc([C@@H]3O[C@H](SC)[C@@H](O)[C@H](O)[C@H]3O)ccc2Cl)cc1 [PCM-0215557] | -17.8 |  |
| CC1(C)CC[C@]2(C(=O)O[C@@H]3O[C@H](CO)[C@@H](O)[C@H](O)[C@H]3O)CC[C@]3(C)C(=CC[C@@H]4[C@@]5(C)CC[C@H](O[C@@H]6O[C@H](C(=O)O)[C@@H](O)[C@H](O)[C@H]6O)C(C)(C)[C@@H]5CC[C@]43C)[C@@H]2C1 [PCM-0216404] | 3.1 |  |
| O=S(=O)(CC1CS1)c1ccc(Oc2ccccc2)cc1 (stereo not drawn) [PCM-0095742] | 20.8 |  |
| CC(=O)OC(C)C(C)C(=O)OC[C@@]12[C@H]3C[C@]4(C)C(=CC[C@@H]5[C@@]6(C)CC[C@H](O[C@@H]7O[C@H](C(=O)O)[C@@H](O[C@@H]8O[C@H](CO)[C@@H](O)[C@H](O)[C@H]8O)[C@H](O)[C@H]7O[C@@H]7OC[C@@H](O)[C@H](O)[C@H]7O)[C@@](C)(CO)[C@@H]6CC[C@]54C)[C@@H]1CC(C)(C)[C@H](O3)[C@@H]2O (stereo partly drawn) [PCM-0215924] | 5.1 |  |
| NC(Cc1c[nH]c2ccc(O)cc12)C(=O)O (stereo not drawn) [PCM-0094825] | -2.3 |  |
| CCCN(CCC)CCc1cccc2c1CC(=O)N2 [PCM-0065591] | -18.7 |  |
| CO/N=C(\C(=O)N[C@@H]1C(=O)N2C(C(=O)O)=C(CSc3nc(C)c(CC(=O)O)s3)CS[C@H]12)c1csc(N)n1 [PCM-0215155] | -2.3 |  |
| Nc1nc2cc(-c3ccc4ncc(C(=O)N5CCOCC5)n4c3)ccc2o1 [PCM-0215857] | 21.4 |  |
| CNC(=O)c1ccc(N2C(=S)N(c3cnc(C#N)c(C(F)(F)F)c3)C(=O)C23CCC3)cc1F [PCM-0095458] | -3.1 |  |
| NC(=O)Nc1cc(-c2cccc(F)c2)sc1C(=O)N[C@H]1CCCNC1 [PCM-0095092] | 86.9 |  |
| CCC(=O)Nc1cccc(Oc2nc(Nc3ccc(N4CCN(C)CC4)cc3OC)ncc2Cl)c1 [PCM-0095726] | -2.1 |  |
| O=C(O)c1ccccc1C(=O)Nc1ccc(-c2ccccc2)cc1 [PCM-0215383] | 13.9 |  |
| OC[C@H]1O[C@H](OC[C@H]2OC(O)[C@H](O)[C@@H](O)[C@@H]2O)[C@H](O)[C@@H](O)[C@H]1O (stereo partly drawn) [PCM-0215071] | -21.8 |  |
| CC(C)OC(=O)CCC/C=C\C[C@@H]1[C@@H](CC[C@@H](O)CCc2ccccc2)[C@H](O)C[C@@H]1O [PCM-0215712] | -13.1 |  |
| Cc1cc(CN2CCN(c3c(Br)cnc4nc(-c5ccc(N6CCN(C)CC6)cc5)[nH]c34)CC2)no1 [PCM-0095479] | 4.3 |  |
| COc1ccc(Cn2c3ncnc4c(ncn4Cc4ccc(OC)cc4)c-3nc2=O)cc1 [PCM-0215699] | 7.7 |  |
| O=C1NC(=O)/C(=C/c2ccc(-c3ccc(F)cc3O)o2)S1 [PCM-0064686] | 82.8 |  |
| CCCN(CCC)S(=O)(=O)c1ccc(C(=O)O)cc1 [PCM-0086122] | -4.7 |  |
| CCOC(=O)c1c2c3c(cccc3[nH]c1=O)C(=O)c1ccccc1-2 [PCM-0215657] | -20.1 |  |
| CCOc1cc(CC(=O)N[C@@H](CC(C)C)c2ccccc2N2CCCCC2)ccc1C(=O)O [PCM-0086171] | 17.1 |  |
| Nc1nc(N)nc(-c2cc(Cl)ccc2Cl)n1 [PCM-0086432] | 4.3 |  |
| Nc1c(CC(=O)O)cccc1C(=O)c1ccc(Br)cc1 [PCM-0214777] | -47.6 |  |
| Cc1cc(O)cc(O)c1 [PCM-0216278] | 3.1 |  |
